These results are taken from patent publication US10149809B2, “Skin aging inhibitor and concentrate of resveratrol 3-O-α-glucoside” (priority 2014, dated 2018).

Series [1] can be described thus: Solubility in solvent containing 1,2-hexanediol. The format is physicochemical. The procedure: Approximately 40 mg each of resveratrol 3-O-α-glucoside, resveratrol (Tokyo Chemical Industry Co., Ltd.), and resveratrol 3-O-β-glucoside (Tokyo Chemical Industry Co., Ltd.) was weighed, approximately 70 mg of a solvent (whose composition is shown in Table 18) containing ethanol (Wako Pure Chemical Industries, Ltd.) was added thereto, and the mixture was soaked in a water bath at 25° C. under light-tight conditions, and incubated for 15 hours with occasional stirring. After 15 hours, each of the samples was filtered through a 0.45 μm centrifugal filter, and then the concentration of each of the components in the filtrate was analyzed using HPLC under the same conditions as those described in Production Example 1 above. The dissolved concentration (w/v %) at 25° C. was thus determined.
The solubility of resveratrol 3-O-α-glucoside was evaluated under the same conditions as those described in Example 18 above, except that a solvent (whose composition is shown in Table 24) containing 1,2-hexanediol (Kankosha Co., Ltd.) was used.

Series [2] in a line: Absorption when orally ingested: converted resveratrol concentration in plasma. It is filed as in vivo, human. The procedure: Blood concentrations of resveratrol metabolites when resveratrol 3-O-α-glucoside and resveratrol 3-O-β-glucoside were orally ingested were examined, and the absorption properties of resveratrol 3-O-α-glucoside and resveratrol 3-O-β-glucoside were compared.
To 100 mL of water, 86 mg of resveratrol 3-O-α-glucoside or resveratrol 3-O-β-glucoside (Tokyo Chemical Industry Co., Ltd.) was added, and the mixture was stirred for 1 minute. The resulting solution was orally ingested by a subject at a time. Blood was collected prior to, 30 minutes after, and 1, 2, 3, and 4 hours after the ingestion, and the plasma was separated by centrifugation. The test was performed three times for each of the samples. In order to quantify the amount of resveratrol derivatives in the collected plasma samples, 10 μL of β-glucronidase Type H-2 from Sigma-Aldrich Co. LLC. (glucuronidase activity: 115003 units/mL, sulfatase activity: 556 units/mL; a 5-fold diluted solution in a 100 mM acetate buffer solution (pH 5.5)) was added to 10 μL of the collected plasma, and enzyme treatment was performed at 37° C. for about 18 hours. After the reaction, 80 μL of 60% acetonitrile was added, and subsequently 100 μL of water was further added thereto, and the mixture was stirred. The filtrate obtained by filtering through a membrane (0.45 μm) was subjected to HPLC analysis. A converted resveratrol concentration was determined by converting the concentration of resveratrol derivatives in each of the plasma samples into the concentration of resveratrol, and maximum blood concentrations and areas under the curve (AUCs) 0 to 4 hours after the ingestion were determined.

The subject of series [3] is skin model (MEL-312B; MatTek). The series can be described thus: Melanogenesis suppressing effect in skin model (amount of melanin, visual observation). Particulars: 16 days; for Relative Amount of Melanin: PBS control group = 100%; for Visual Observation: compared with PBS control group. It is filed as cell-based. The procedure: Resveratrol 3-O-α-glucoside, resveratrol (Tokyo Chemical Industry Co., Ltd.), or resveratrol 3-O-β-glucoside (Tokyo Chemical Industry Co., Ltd.) was prepared into a 0.2 wt % solution or suspension with the addition of PBS, and the resulting solution or suspension was used as a test substance. A skin model (MEL-312B; MatTek) was used, and 50 μL of the test substance was added to the horny layer side of the skin model and cultured in a special medium (EPI-100NMM-113; MatTek) at 37° C. for 16 days. On days 2, 4, 7, 9, 11, and 14, the medium and the test substance were replaced with fresh ones. As a control group, the same operation was performed using PBS instead of the test substance.
After 16 days of culture, the skin model was visually observed, and the amount of melanin in the skin model was evaluated. The amount of melanin was measured using the following method. Initially, the collected skin model was subjected to enzymatic degradation by proteinase-K, and was subsequently homogenated in PBS containing 1% triton X-100. Melanin was then extracted by washing with 10% TCA and ethanol. Next, the extracted melanin was dissolved in 0.5 mL of 1N-NaOH containing 10% DMSO at 80° C. for 2 hours, and the amount of melanin was quantified by measuring absorbance at 470 nm.
Resveratrol 3-O-α-glucoside was prepared into a 0.2 wt % solution, a 0.1 wt % solution, or a 0.01 wt % solution with the addition of PBS. The resulting solution was used as a test substance, and the melanogenesis suppressing effect was evaluated using the same method as that of Example 1 above. […]

Series [4] concerns sirtuin 1 gene. The series can be described thus: Sirtuin 1 gene expression-promoting effect (2). The format is cell-based. Particulars: normal human epidermal keratinocytes, 0.001 wt %, 33 hours, medium without hydrocortisone; control = 100%. Here is the method:
Normal human epidermal keratinocytes were seeded into 12-well culture plates at 5×10^4 cells per well. As the medium, EpiLife KG-2 medium supplemented with insulin, hEGF, hydrocortisone, anti-microbial agents, and BPE was used (basal medium), and the cells were preincubated in 5% CO2 at 37° C. for 48 hours. The medium was removed, and then replaced with a sample medium obtained by removing hydrocortisone from the above-described basal medium, and by supplementing the resulting medium with resveratrol 3-O-α-glucoside to a concentration of 0.001 wt %, and the cells were cultured in 5% CO2 at 37° C. For comparison, the cells were cultured under the same conditions as described above, except that resveratrol 3-O-α-glucoside in the sample medium was replaced by resveratrol 3-O-β-glucoside. After 33 hours of culture, total RNA was extracted from the cells, and the level of expression of the sirtuin 1 gene was quantified by real time PCR. As a control group, cells were cultured without resveratrol 3-O-α-glucoside or resveratrol 3-O-β-glucoside, and total RNA collected from these cells was used. Taking as 100% the level of expression of the sirtuin 1 gene for the control group, a relative ratio of the expression level of the sirtuin 1 gene for the resveratrol 3-O-α-glucoside- or resveratrol 3-O-β-glucoside-supplemented group (SIRT 1 gene expression ratio, %) was determined. […]

For `OC[C@H]1O[C@H](Oc2cc(O)cc(C=Cc3ccc(O)cc3)c2)[C@H](O)[C@@H](O)[C@@H]1O` [Resveratrol 3-O-α-Glucoside, resveratrol 3-O-α-glucoside], in series [1], the dissolved concentration entry is given as “exceeded 25 w/v %”. Moreover, in series [2] (human, in vivo, po, 86 mg), the “AUC relative to resveratrol 3-O-β-glucoside” value is 2.8 times. The “Relative Amount of Melanin” value in series [3] (0.01 wt % in PBS) came out at 88%; in series [3] (0.1 wt % in PBS), 67%; in series [3] (0.2 wt % in PBS, 50 μL), 46%. For the same compound, the “Visual Observation” value in series [3] (0.01 wt % in PBS) is reported as “slightly whiter than the”. Also, in series [4], the “SIRT 1 Gene Expression Ratio (%)” value stood at 141%.
For `OC[C@H]1O[C@@H](Oc2cc(O)cc(/C=C/c3ccc(O)cc3)c2)[C@H](O)[C@@H](O)[C@@H]1O` [Resveratrol 3-O-β-Glucoside, resveratrol 3-O-β-glucoside], the “Dissolved Concentration (w/v %) at 25° C.” value in series [1] (1,2-Hexanediol:Water 0:100 (weight ratio)) was 0.04 w/v %; in series [1] (1,2-Hexanediol:Water 5:95 (weight ratio)) it was 0.1 w/v %; in series [1] (1,2-Hexanediol:Water 10:90 (weight ratio)), 0.5 w/v %; in series [1] (1,2-Hexanediol:Water 25:75 (weight ratio)) it was 2.6 w/v %; in series [1] (1,2-Hexanediol:Water 50:50 (weight ratio)) it was 6.5 w/v %; in series [1] (1,2-Hexanediol:Water 75:25 (weight ratio)), 7.9 w/v %. For the same compound, the “Dissolved Concentration (w/v %) at 25° C.” value in series [1] (1,2-Hexanediol:Water 90:10 (weight ratio)) came out at 10.7 w/v %; in series [1] (1,2-Hexanediol:Water 100:0 (weight ratio)), 3.2 w/v %. For the same compound, in series [2] (86 mg in 100 mL water orally, one subject, three tests, converted resveratrol concentration after glucuronidase/sulfatase treatment), the “Maximum Plasma Concentration” value was 282 ng/mL. For the same compound, in series [2] (86 mg orally, 0 to 4 hours after ingestion, converted resveratrol concentration), the “Area under the Curve ((mg/L) · Hr)” value is on record as 0.9 (mg/L) · Hr. Besides, in series [3] (0.2 wt % in PBS, 50 μL to horny layer side), the “Visual Observation” value was “the same as the control”. Moreover, in series [3] (0.2 wt % in PBS, 50 μL), the “Relative Amount of Melanin” value stood at 79%. In addition, the “SIRT 1 Gene Expression Ratio (%)” value in series [4] came out at 120%.
